What is called IC50 is the concentration that gives 50% inhibition.

This passage reports IC50 and tumor growth inhibition results from US11104675B2, “PTPN11 inhibitors” (NAVIRE PHARMA, INC., priority 2018, dated 2021).

The target in test [1] is PTPN11-E76K mutant enzyme (Homo sapiens (Human), UniProt Q06124, E76K). In words: PTPN11 Enzymatic Assay (DiFMUP phosphatase activity). It is filed as biochemical. Conditions: full length PTPN11-E76K, DiFMUP substrate; read-out: IC50, inhibition of PTPN11-E76K mutant enzyme.
Sequence of PTPN11-E76K mutant enzyme (Q06124 whole entry E76K): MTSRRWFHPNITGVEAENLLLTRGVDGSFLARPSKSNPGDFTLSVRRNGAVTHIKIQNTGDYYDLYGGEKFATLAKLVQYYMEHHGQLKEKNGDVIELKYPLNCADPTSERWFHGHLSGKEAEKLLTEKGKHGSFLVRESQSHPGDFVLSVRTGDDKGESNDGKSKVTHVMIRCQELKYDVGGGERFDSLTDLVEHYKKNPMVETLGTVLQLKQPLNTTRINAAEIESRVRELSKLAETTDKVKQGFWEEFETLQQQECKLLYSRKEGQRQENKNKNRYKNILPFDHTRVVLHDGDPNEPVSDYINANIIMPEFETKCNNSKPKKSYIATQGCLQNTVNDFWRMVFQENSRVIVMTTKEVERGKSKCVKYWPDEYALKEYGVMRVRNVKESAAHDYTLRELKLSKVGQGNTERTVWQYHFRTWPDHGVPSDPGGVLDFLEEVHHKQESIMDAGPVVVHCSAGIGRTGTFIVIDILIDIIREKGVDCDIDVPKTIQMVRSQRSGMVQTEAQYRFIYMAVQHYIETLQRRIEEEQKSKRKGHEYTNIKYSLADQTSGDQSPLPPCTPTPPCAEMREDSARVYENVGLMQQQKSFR
The test system of a further test is KYSE520 xenografts. Put plainly: In vivo anti-tumor efficacy, KYSE520 xenograft model. Also noted: species or system NSG (NOD scid gamma) mice. The conditions noted are these: NSG mice, subcutaneous KYSE520 xenografts, oral gavage once a day for 21 days.

For `COc1cccc(-n2c(C)nc(N3CCC4(CC3)CO[C@@H](C)[C@H]4N)cc2=O)c1Cl` (atropisomer, axis not shown; (Ra)) [Example 7b, 6-((3S,4S)-4-amino-3-methyl-2-oxa-8-azaspiro[4.5]decan-8-yl)-3-(Ra)-(2-chloro-3-methoxyphenyl)-2-methylpyrimidin-4(3H)-one], in test [1], the IC50 is 153 nM. Turning to `Cc1c(N2CCC3(CC2)CO[C@@H](C)[C@H]3N)nc(C)n(-c2cccc(Cl)c2Cl)c1=O` (atropisomer, axis not shown; (Ra)) [Example 10b, 6-((3S, 4S)-4-amino-3-methyl-2-oxa-8-azaspiro[4.5]decan-8-yl)-3-(Ra)-(2,3-dichlorophenyl)-2,5-dimethylpyrimidin-4(3H)-one], the IC50 in test [1] was 28 nM. Also, in the test on KYSE520 xenografts, the tumor growth inhibition result was “dose-dependent tumor growth inhibition”. Turning to `Cc1nc(N2CCC3(CC2)CO[C@@H](C)[C@H]3N)c(Br)c(=O)n1-c1cccc(Cl)c1Cl` (atropisomer, axis not shown; (Ra)) [Example 12b, 6-((3S, 4S)-4-amino-3-methyl-2-oxa-8-azaspiro[4.5]decan-8-yl)-5-bromo-3-(Ra)-(2,3-dichlorophenyl)-2-methylpyrimidin-4(3H)-one], the IC50 in test [1] came out at 20 nM. As for `Cc1cccc(-n2c(C)nc(N3CCC4(CC3)CO[C@@H](C)[C@H]4N)cc2=O)c1Cl` (atropisomer, axis not shown; (Ra)) [Example 13b, 6-((3S, 4S)-4-amino-3-methyl-2-oxa-8-azaspiro[4.5]decan-8-yl)-3-(Ra)-(2-chloro-3-methylphenyl)-2-methylpyrimidin-4(3H)-one], the IC50 in test [1] came to 186 nM. For the compound `Cc1nc(N2CCC3(CC2)CO[C@@H](C)[C@H]3N)cc(=O)n1-c1cccc(C(F)(F)F)c1Cl` (atropisomer, axis not shown; (Ra)) [Example 14b, 6-((3 S, 4S)-4-Amino-3-methyl-2-oxa-8-azaspiro[4.5]decan-8-yl)-3-(Ra)-(2-chloro-3-(trifluoromethyl)phenyl)-2-methylpyrimidin-4(3H)-one], the concentration for half-maximal inhibition (IC50) in test [1] is 703 nM. As to `Cc1nc(N2CCC3(CC2)CO[C@@H](C)[C@H]3N)cc(=O)n1-c1ccc(Oc2ccccc2)c(Cl)c1Cl` (atropisomer, axis not shown; (Ra)) [Example 15b, 6-((3S, 4S)-4-amino-3-methyl-2-oxa-8-azaspiro[4.5]decan-8-yl)-3-(Ra)-(2,3-dichloro-4-phenoxyphenyl)-2-methylpyrimidin-4(3H)-one], the IC50 in test [1] worked out at 148 nM. For the compound `Cc1nc(N2CCC3(CC2)CO[C@@H](C)[C@H]3N)cc(=O)n1-c1ccc(Oc2ccn(C)n2)c(Cl)c1Cl` (atropisomer, axis not shown; (Ra)) [Example 16b, 6-((3 S, 4S)-4-Amino-3-methyl-2-oxa-8-azaspiro[4.5]decan-8-yl)-3-(Ra)-(2,3-dichloro-4-((1-methyl-1H-pyrazol-3-yl)oxy)phenyl)-2-methylpyrimidin-4(3H)-one], in test [1], the IC50 was 92 nM. With `Cc1c(N2CCC3(CC2)CO[C@@H](C)[C@H]3N)nc(C)n(-c2ccc(Oc3ccn(C)n3)c(Cl)c2Cl)c1=O` (atropisomer, axis not shown; (Ra)) [Example 18b, 6-((3 S, 4 S)-4-Amino-3-methyl-2-oxa-8-azaspiro[4.5]decan-8-yl)-3-(Ra)-(2,3-dichloro-4-((1-methyl-1H-pyrazol-3-yl)oxy)phenyl)-2,5-dimethylpyrimidin-4(3H)-one], the IC50 in test [1] was 3 nM. For the compound `CNC(=O)c1ccc(Oc2ccc(-n3c(C)nc(N4CCC5(CC4)CO[C@@H](C)[C@H]5N)c(C)c3=O)c(Cl)c2Cl)cc1` (atropisomer, axis not shown; (Ra)) [Example 19b], the IC50 in test [1] came to 12 nM.

Regarding `Cc1c(N2CCC3(CC2)CO[C@@H](C)[C@H]3N)nc(C)n(-c2ccc(Oc3cc[nH]n3)c(Cl)c2Cl)c1=O` (atropisomer, axis not shown; (Ra)) [Example 20b, 3-(4-((1H-pyrazol-3-yl)oxy)-(Ra)-2,3-dichlorophenyl)-6-((3S, 4S)-4-amino-3-methyl-2-oxa-8-azaspiro[4.5]decan-8-yl)-2,5-dimethylpyrimidin-4(3H)-one], the IC50 in test [1] was determined as 5 nM. Turning to `COc1cccc(-n2c(C)nc(N3CCC4(CC3)CO[C@@H](C)[C@H]4N)cc2=O)c1Cl` (atropisomer, axis not shown; (Sa)) [Example 7a, 6-((3S,4S)-4-amino-3-methyl-2-oxa-8-azaspiro[4.5]decan-8-yl)-3-(Sa)-(2-chloro-3-methoxyphenyl)-2-methylpyrimidin-4(3H)-one], in test [1], the IC50 was above 10000 nM. For the compound `Cc1c(N2CCC3(CC2)CO[C@@H](C)[C@H]3N)nc(C)n(-c2cccc(Cl)c2Cl)c1=O` (atropisomer, axis not shown; (Sa)) [Example 10a, 6-((3S, 4S)-4-Amino-3-methyl-2-oxa-8-azaspiro[4.5]decan-8-yl)-3-(Sa)-(2,3-dichlorophenyl)-2,5-dimethylpyrimidin-4(3H)-one], the 50% inhibitory concentration (IC50) in test [1] stood at 2580 nM. As to `Cc1nc(N2CCC3(CC2)CO[C@@H](C)[C@H]3N)c(Br)c(=O)n1-c1cccc(Cl)c1Cl` (atropisomer, axis not shown; (Sa)) [Example 12a, 6-((3S, 4S)-4-Amino-3-methyl-2-oxa-8-azaspiro[4.5]decan-8-yl)-5-bromo-3-(Sa)-(2,3-dichlorophenyl)-2-methylpyrimidin-4(3H)-one], in test [1], the IC50 is 3460 nM. As to `Cc1cccc(-n2c(C)nc(N3CCC4(CC3)CO[C@@H](C)[C@H]4N)cc2=O)c1Cl` (atropisomer, axis not shown; (Sa)) [Example 13a, 6-((3S, 4S)-4-Amino-3-methyl-2-oxa-8-azaspiro[4.5]decan-8-yl)-3-(Sa)-(2-chloro-3-methylphenyl)-2-methylpyrimidin-4(3H)-one], the IC50 in test [1] was determined as 7500 nM. The same measure, in the same setting: with `Cc1nc(N2CCC3(CC2)CO[C@@H](C)[C@H]3N)cc(=O)n1-c1cccc(C(F)(F)F)c1Cl` (atropisomer, axis not shown; (Sa)) [Example 14a, 6-((3S, 4S)-4-Amino-3-methyl-2-oxa-8-azaspiro[4.5]decan-8-yl)-3-(Sa)-(2-chloro-3-(trifluoromethyl)phenyl)-2-methylpyrimidin-4(3H)-one] the figure was above 1000 nM.

As to `Cc1nc(N2CCC3(CC2)CO[C@@H](C)[C@H]3N)cc(=O)n1-c1ccc(Oc2ccccc2)c(Cl)c1Cl` (atropisomer, axis not shown; (Sa)) [Example 15a, 6-((3S, 4S)-4-Amino-3-methyl-2-oxa-8-azaspiro[4.5]decan-8-yl)-3-(Sa)-(2,3-dichloro-4-phenoxyphenyl)-2-methylpyrimidin-4(3H)-one], the IC50 in test [1] was above 1000 nM. Same read-out and setting: with `Cc1nc(N2CCC3(CC2)CO[C@@H](C)[C@H]3N)cc(=O)n1-c1ccc(Oc2ccn(C)n2)c(Cl)c1Cl` (atropisomer, axis not shown; (Sa)) [Example 16a, 6-((3 S, 4S)-4-Amino-3-methyl-2-oxa-8-azaspiro[4.5]decan-8-yl)-3-(Sa)-(2,3-dichloro-4-((1-methyl-1H-pyrazol-3-yl)oxy)phenyl)-2-methylpyrimidin-4(3H)-one] the figure was 9550 nM; with `Cc1c(N2CCC3(CC2)CO[C@@H](C)[C@H]3N)nc(C)n(-c2ccc(Oc3ccn(C)n3)c(Cl)c2Cl)c1=O` (atropisomer, axis not shown; (Sa)) [Example 18a, 6-((3S, 4S)-4-Amino-3-methyl-2-oxa-8-azaspiro[4.5]decan-8-yl)-3-(Sa)-(2,3-dichloro-4-((1-methyl-1H-pyrazol-3-yl)oxy)phenyl)-2,5-dimethylpyrimidin-4(3H)-one], 511 nM. Turning to `Cc1nc(N2CCC(C)(CN)CC2)cc(=O)n1-c1cccc(Cl)c1Cl` [Example 3, 6-[4-(aminomethyl)-4-methylpiperidin-1-yl]-3-(2,3-dichlorophenyl)-2-methyl-3,4-dihydropyrimidin-4-one], the IC50 in test [1] came out at 310 nM. In the case of `CCC1(N)CCN(c2cc(=O)n(-c3cccc(Cl)c3Cl)c(C)n2)CC1` [Example 4, 6-(4-amino-4-ethylpiperidin-1-yl)-3-(2,3-dichlorophenyl)-2-methyl-3,4-dihydropyrimidin-4-one], the IC50 in test [1] is 480 nM. As to `Cc1nc(N2CCC3(CC2)CO[C@@H](C)[C@H]3N)cc(=O)n1-c1cccc(F)c1F` [Example 5, 6-[(3S,4S)-4-amino-3-methyl-2-oxa-8-azaspiro[4.5]decan-8-yl]-3-(2,3-difluorophenyl)-2-methyl-3,4-dihydropyrimidin-4-one], the IC50 in test [1] is 1170 nM. Take `Cc1nc(N2CCC3(CC2)CO[C@@H](C)[C@H]3N)cc(=O)n1-c1ccc(Br)c(Cl)c1Cl` [Example 6, 6-((3S,4S)-4-amino-3-methyl-2-oxa-8-azaspiro[4.5]decan-8-yl)-3-(4-bromo-2,3-dichlorophenyl)-2-methylpyrimidin-4(3H)-one]: the IC50 in test [1] was 203 nM. Regarding `Cc1nc(N2CCC3(CC2)CO[C@@H](C)[C@H]3N)cc(=O)n1-c1cccc(Cl)c1Br` [Example 8, 6-((3S,4S)-4-amino-3-methyl-2-oxa-8-azaspiro[4.5]decan-8-yl)-3-(2-bromo-3-chlorophenyl)-2-methylpyrimidin-4(3H)-one], in test [1], the IC50 was determined as 360 nM.

Turning to `Cc1nc(N2CCC3(CC2)CO[C@@H](C)[C@H]3N)c(Cl)c(=O)n1-c1ccnc(Cl)c1Cl` [Example 17, 6-((3S, 4S)-4-Amino-3-methyl-2-oxa-8-azaspiro[4.5]decan-8-yl)-5-chloro-3-(2,3-dichloropyridin-4-yl)-2-methylpyrimidin-4(3H)-one], the IC50 in test [1] was 618 nM.
